In ChEMBL document CHEMBL3988181, “GlaxoSmithKline Published Kinase Inhibitor Set 2 Onchocerca lienalis Screening Data”:
“And” between values parts separate entries of the source, which are not always exact repeats. Equal entries are not always repeated.

Assay: GSK PKIS2: Screen against O. lienalis microfilariae, single point, at 3.1uM to assess reduction in motility. Compounds were also tested for cytotoxicity against Rhesus Monkey LLCMK2 cells.
Format: functional, Onchocerca lienalis, LLC-MK2
Conditions: CELL_LINE LLCMK2, CELL_SUPPLIER ECACC, CONC 3.1 uM, ORGANISM_SUPPLIER Extracted from peri-umbilical skin obtained from naturally infected cattle in the UK, temperature 37 degree C

C=CC(=O)Nc1cc2c(Nc3ccc(F)c(Cl)c3)ncnc2cc1OCCCN1CCOCC1 [CANERTINIB]
MOTILITY REDUCTION/CYTOTOXICITY: 0%

CN(C)Cc1ccc(-c2ccc3c(Nc4ccc(Oc5ccccn5)cc4)ccnc3c2)o1
MOTILITY REDUCTION/CYTOTOXICITY: 0%

O=C(Nc1n[nH]c2nc(-c3ccccc3)ccc12)C1CC1
MOTILITY REDUCTION/CYTOTOXICITY: 0%

O=C(Nc1n[nH]c2nc(-c3nccs3)c(Br)cc12)C1CC1
MOTILITY REDUCTION/CYTOTOXICITY: 20%

Cc1cn2c(=O)cc(N3CCOCC3)nc2n1Cc1cccc(Cl)c1Cl
MOTILITY REDUCTION/CYTOTOXICITY: 0%

Clc1ccc(-c2nn3ncccc3c2-c2ccnc(Nc3ccc4c(c3)OCCO4)n2)cc1
MOTILITY REDUCTION/CYTOTOXICITY: 0%

Cc1cc(N2CCC(NS(=O)(=O)c3ccc(F)cc3)CC2)nc(Nc2cccc(C#N)c2)n1
MOTILITY REDUCTION/CYTOTOXICITY: 0%

CN(c1ccc(NC(=O)Nc2cc(C(F)(F)F)ccc2F)cc1)c1ccnc(Nc2ccc(S(N)(=O)=O)cc2)n1
MOTILITY REDUCTION/CYTOTOXICITY: 100%

CCn1c(-c2nonc2N)nc2ccccc21 [GW549034X]
MOTILITY REDUCTION/CYTOTOXICITY: 0%

Nc1nc(-c2nccs2)c(-c2ccnc3ccccc23)s1
MOTILITY REDUCTION/CYTOTOXICITY: 0%

NCCC(NC(=O)c1cc(Br)c(-c2ccnc3[nH]ccc23)s1)c1ccccc1 (stereo not given)
MOTILITY REDUCTION/CYTOTOXICITY: 13.4%

NS(=O)(=O)c1cccc(Nc2cc(-c3ccc(F)cc3)n[nH]2)c1
MOTILITY REDUCTION/CYTOTOXICITY: 33.4%

COC(=O)Nc1nc2ccc(Oc3ccc(NC(=O)Nc4cc(C(F)(F)F)ccc4F)cn3)cc2[nH]1
MOTILITY REDUCTION/CYTOTOXICITY: 0%

NC(=O)c1cccc(Nc2nccc(Nc3ccc(Oc4cccc(Cl)c4)c(Cl)c3)n2)c1
MOTILITY REDUCTION/CYTOTOXICITY: 20%

Nc1nc(-c2ccc3c(N)n[nH]c3c2)cc(N2CCCC2)n1
MOTILITY REDUCTION/CYTOTOXICITY: 0%

CSc1nn2c(=O)cc(N3CCOCC3)nc2n1Cc1cccc(Cl)c1Cl
MOTILITY REDUCTION/CYTOTOXICITY: 46.7%

O=C(Nc1cccc(-c2nn3ccccc3c2-c2ccnc(Nc3cccc(F)c3)n2)c1)c1c(F)ccc(F)c1Cl
MOTILITY REDUCTION/CYTOTOXICITY: 0%

O=C(Nc1ccc(Oc2ccc3[nH]c(NC(=O)c4ccco4)nc3c2)cc1)Nc1cc(C(F)(F)F)ccc1F
MOTILITY REDUCTION/CYTOTOXICITY: 0%

O=c1cc(N2CCOCC2)nc2n(Cc3cccc(Cl)c3)ccn12
MOTILITY REDUCTION/CYTOTOXICITY: 0%

CNc1nc(-c2ccc3c(N)n[nH]c3c2)cc(N2C[C@@H](C(=O)Nc3ccccc3)CC[C@H]2C)n1
MOTILITY REDUCTION/CYTOTOXICITY: 0%

Oc1cccc(Nc2ccnc3cc(-c4ccncc4)ccc23)c1
MOTILITY REDUCTION/CYTOTOXICITY: 0%

COc1cccc(NC(=O)NCCNc2ccnc(Nc3ccc(F)cc3)n2)c1
MOTILITY REDUCTION/CYTOTOXICITY: 33.4%

Cc1nnc(-c2ccc(C)c(-c3ccc(C(=O)Nc4ccc(NS(C)(=O)=O)cc4)cc3)c2)o1
MOTILITY REDUCTION/CYTOTOXICITY: 0%

COc1cc2ncn(-c3cc(OCCCc4ccccc4)c(C(N)=O)s3)c2cc1OC
MOTILITY REDUCTION/CYTOTOXICITY: 33.4%

O=C(NCc1cccs1)c1cc(C(=O)c2c(Cl)cccc2Cl)c[nH]1
MOTILITY REDUCTION/CYTOTOXICITY: 0%

COc1cccc(CC(=O)N2CCc3cc(-c4cn(C)c5ncnc(N)c45)ccc32)c1
MOTILITY REDUCTION/CYTOTOXICITY: 0%

Cc1cccc(Nc2nc(N[C@H]3CCCC[C@H]3N)ncc2C(N)=O)c1
MOTILITY REDUCTION/CYTOTOXICITY: 40%

COC(=O)c1cccc(NC(=O)NCCNc2ccnc(Nc3ccc(F)cc3)n2)c1
MOTILITY REDUCTION/CYTOTOXICITY: 0%

CCN(CC)CCOc1ccc(Nc2ncc3cc(-c4c(Cl)cccc4Cl)c(=O)n(C)c3n2)cc1 [PD-0166285]
MOTILITY REDUCTION/CYTOTOXICITY: 33.4%

O=C(Nc1n[nH]c2nc(-c3ccco3)c(Br)cc12)C1CCN(Cc2ccccc2)C1 (stereo not given)
MOTILITY REDUCTION/CYTOTOXICITY: 33.4%

O=C(Nc1n[nH]c2cc(-c3cccc(F)c3)ccc12)C1CC1
MOTILITY REDUCTION/CYTOTOXICITY: 0%

CC(C)Nc1cc(-c2ccc3c(N)n[nH]c3c2)nc(N)n1
MOTILITY REDUCTION/CYTOTOXICITY: 60%

Nc1n[nH]c2cnc(-c3ccccc3)cc12
MOTILITY REDUCTION/CYTOTOXICITY: 0%

NCC(NC(=O)c1cc(-c2cccnc2)c(-c2ccnc3[nH]ccc23)s1)c1ccccc1 (stereo not given)
MOTILITY REDUCTION/CYTOTOXICITY: 0%

CNC(=O)c1ccccc1Nc1nc(Nc2cccc(CS(C)(=O)=O)c2)ncc1C
MOTILITY REDUCTION/CYTOTOXICITY: 33.4%

Nc1ncnc2c1ncn2-c1ccc(Cl)cc1
MOTILITY REDUCTION/CYTOTOXICITY: 60%

CCn1c(-c2nonc2N)nc2c(C#CC(C)(C)O)nc(OCCN)cc21
MOTILITY REDUCTION/CYTOTOXICITY: 0%

Cc1ccccc1-c1cc(-c2c[nH]nc2-c2ccccn2)ccn1
MOTILITY REDUCTION/CYTOTOXICITY: 0%

Clc1ccc(-c2cc(-c3c[nH]nc3-c3ccccn3)ccn2)cc1
MOTILITY REDUCTION/CYTOTOXICITY: 0%

C[C@@H]1CCCCN1c1cc(-c2ccc3c(N)n[nH]c3c2)nc(N)n1
MOTILITY REDUCTION/CYTOTOXICITY: 13.4%

Fc1ccc(Nc2nccc(-c3c(-c4ccc(Cl)cc4)nn4ncccc34)n2)cc1F
MOTILITY REDUCTION/CYTOTOXICITY: 0%

COc1ccc(CNC(=O)NC2CCN(c3ccnc(Nc4ccc(F)cc4)n3)CC2)cc1
MOTILITY REDUCTION/CYTOTOXICITY: 33.4%

COc1cc2ncnc(Nc3ccc(OCc4ccccc4Br)c(Cl)c3)c2cc1OC.Cl
MOTILITY REDUCTION/CYTOTOXICITY: 0%

Cc1ccc(NC(=O)c2ccnc(N3CCN(C)CC3)c2)cc1-c1ccc(C(=O)NCC2CC2)cc1
MOTILITY REDUCTION/CYTOTOXICITY: 0%

Cc1cc(NCC(c2ccccc2)c2ccccc2)nc(NCc2ccc(C(F)(F)F)cc2)n1
MOTILITY REDUCTION/CYTOTOXICITY: 53.4%

Cn1cc(-c2ccc3c(c2)CCN3C(=O)Cc2cc(F)cc(C(F)(F)F)c2)c2c(N)ncnc21
MOTILITY REDUCTION/CYTOTOXICITY: 0%

Nc1n[nH]c2cc(-c3ccccn3)ccc12
MOTILITY REDUCTION/CYTOTOXICITY: 0%

COc1ccc(Nc2nccc(NCCNC(=O)Nc3ccccc3F)n2)cc1
MOTILITY REDUCTION/CYTOTOXICITY: 0%

CC(C(=O)NC1CCN(c2ccnc(Nc3ccc(F)cc3)n2)C1)c1ccc(Cl)cc1 (stereo not given)
MOTILITY REDUCTION/CYTOTOXICITY: 33.4%

COc1cc2c(Nc3ccc(NC(=O)c4ccccc4)cc3)ncnc2cc1OCCCN1CCOCC1
MOTILITY REDUCTION/CYTOTOXICITY: 0%

Cc1cccc(-c2nc(C)cc(Nc3ccncc3)n2)n1
MOTILITY REDUCTION/CYTOTOXICITY: 0%

Nc1ncnc2[nH]c(-c3ccccc3)nc12
MOTILITY REDUCTION/CYTOTOXICITY: 0%

COc1cc2nccc(Nc3ccc(OCc4ccc(NC(C)=O)cc4)cc3)c2cc1OC
MOTILITY REDUCTION/CYTOTOXICITY: 0%

CSc1nn2c(=O)cc(N3CCOCC3)nc2n1Cc1cccc(C(F)(F)F)c1C
MOTILITY REDUCTION/CYTOTOXICITY (3.1 µM): 16.7% and 0%

NCCNS(=O)(=O)c1ccc(-c2ccnc3[nH]ccc23)cc1
MOTILITY REDUCTION/CYTOTOXICITY: 0%

Cn1ccc(-c2cccc(Nc3ccnc4cc(-c5nccs5)ccc34)c2)n1
MOTILITY REDUCTION/CYTOTOXICITY: 0%

CS(=O)(=O)c1ccc(-c2nc3n(c2-c2ccncc2)CCC3)cc1
MOTILITY REDUCTION/CYTOTOXICITY: 0%

CC(C)N1CCC(n2cnc(-c3ccc(F)cc3)c2-c2ccnc(N)n2)CC1
MOTILITY REDUCTION/CYTOTOXICITY: 0%

Cc1n[nH]c2ccc(-c3cc(OC[C@@H](N)Cc4ccccc4)cnc3-c3ccoc3)cc12
MOTILITY REDUCTION/CYTOTOXICITY: 0%

O=c1[nH]ccc2nc(N[C@@H]3CCNC3)nc(Nc3cc(Cl)cc(Cl)c3)c12
MOTILITY REDUCTION/CYTOTOXICITY: 100%

NCCS[As](SCCN)c1ccc(Nc2nc(N)nc(N)n2)cc1
MOTILITY REDUCTION/CYTOTOXICITY: 100%

Cn1cncc1-c1ccc2ncnc(Nc3ccc(OCc4ccccc4)cc3)c2c1
MOTILITY REDUCTION/CYTOTOXICITY: 0%

Cc1cc(-c2ccc3c(c2)CC[C@@H](N[C@@H](C)c2ccccc2)C3)cnc1N
MOTILITY REDUCTION/CYTOTOXICITY: 33.4%

C[C@@H](Oc1cc(-n2cnc3ccc(-c4ccncc4)cc32)sc1C(N)=O)c1ccccc1Cl
MOTILITY REDUCTION/CYTOTOXICITY: 0%

Cc1ccc(O)cc1Nc1ccnc2ccc(C(C)(C)C)cc12
MOTILITY REDUCTION/CYTOTOXICITY: 100%

Cc1c(Cn2c(C)nn3c(=O)cc(N4CCOC(C)C4)nc23)cccc1C(F)(F)F (stereo not given)
MOTILITY REDUCTION/CYTOTOXICITY: 0%

Cc1cccc(-c2cc(Nc3ccncc3)c3ccccc3n2)n1
MOTILITY REDUCTION/CYTOTOXICITY: 0%

COc1cc2ncn(-c3cc(OCc4sccc4Cl)c(C(N)=O)s3)c2cc1OC
MOTILITY REDUCTION/CYTOTOXICITY: 13.4%

Nc1nc(-c2ccc3c(N)n[nH]c3c2)cc(N2CCCCC2)n1
MOTILITY REDUCTION/CYTOTOXICITY: 0%

NC[C@H](Cc1ccc(C(F)(F)F)cc1)NC(=O)c1cc(Br)c(-c2ccnc3[nH]ccc23)s1
MOTILITY REDUCTION/CYTOTOXICITY: 0%

Cn1cncc1-c1cc2c(Nc3ccc(OCc4ccccc4)cc3)ncnc2cn1
MOTILITY REDUCTION/CYTOTOXICITY: 0%

Cc1ccc(NC(=O)c2cccc(N3CCCCC3)c2)cc1-c1ccc(C(=O)NCC2CC2)cc1
MOTILITY REDUCTION/CYTOTOXICITY: 20%

CCn1c(-c2nonc2N)nc2cncc(Br)c21
MOTILITY REDUCTION/CYTOTOXICITY: 33.4%

Cc1ccc(C(=O)Nc2ccc(Nc3ccnc4cc(-c5nccs5)ccc34)cc2O)cc1
MOTILITY REDUCTION/CYTOTOXICITY: 0%

Cc1n[nH]c2cc(Nc3ccnc(Nc4cccc(CN5CCOCC5)c4)n3)ccc12
MOTILITY REDUCTION/CYTOTOXICITY: 0%

COc1ccc(COc2cc(-n3cnc4ccccc43)sc2C(N)=O)cc1
MOTILITY REDUCTION/CYTOTOXICITY: 0%

CN(C)S(=O)(=O)c1cc(-c2ccc3nccc(-c4cccc(S(N)(=O)=O)c4)c3c2)cnc1N
MOTILITY REDUCTION/CYTOTOXICITY: 60%

Cc1ccccc1CC(=O)N1CCc2cc(-c3cn(C)c4ncnc(N)c34)ccc21
MOTILITY REDUCTION/CYTOTOXICITY: 33.4%

Cc1cc(-c2c(-c3ccc(F)cc3)ncn2CCCN2CCOCC2)nc(N)n1
MOTILITY REDUCTION/CYTOTOXICITY: 0%

CC(=O)c1c(-c2ccncc2)[nH]c(-c2ccncc2)c1C
MOTILITY REDUCTION/CYTOTOXICITY: 33.4%
